This is an account of results in patent US6582952B1 (priority 1997, dated 2003).

Structures are written as SMILES. “Also recorded” adds a separate entry of the source.

The data set concerns Bacillus licheniformis.

On to `Nc1n[nH]c(=O)[nH]1` [amine, 5-amino-1,2,4-triazole-3-one], for which the “stability of the amine formed in the incubation mixture” value is reported as “does not undergo any subsequent transformation; also recorded: stable”.
